Test results: ChEMBL document CHEMBL3734705, “Synthesis and in vitro cytotoxicity of novel C-12 substituted-14-deoxy-andrographolide derivatives as potent anti-cancer agents” (2015)
Calls of active or inactive are those of the source. No cut-off for these calls is given here.

Columns and labels:
Format in all cases: functional
[1] = Cytotoxicity against human SF539 cells after 48 hrs by SRB assay; conditions: SF-539, 48 h
NCI-H522 = experiment: Cytotoxicity against human NCI-H522 cells after 48 hrs by SRB assay; conditions: NCI-H522, 48 h
NCI-H23 = experiment: Cytotoxicity against human NCI-H23 cells after 48 hrs by SRB assay; conditions: NCI-H23, 48 h
SK-OV-3 = experiment: Cytotoxicity against human SKOV3 cells assessed as growth inhibition at 10 uM after 48 hrs by SRB assay
IGROV-1 = experiment: Cytotoxicity against human IGROV1 cells assessed as growth inhibition at 10 uM after 48 hrs by SRB assay
[2] = Cytotoxicity against human SNB19 cells after 48 hrs by SRB assay; conditions: SNB-19, 48 h
MDA-MB-231 = experiment: Cytotoxicity against human MDA-MB-231 cells after 48 hrs by SRB assay; conditions: MDA-MB-231, 48 h
T47D = experiment: Cytotoxicity against human T47D cells after 48 hrs by SRB assay
MDA-MB-468 = experiment: Cytotoxicity against human MDA-MB-468 cells after 48 hrs by SRB assay; conditions: MDA-MB-468, 48 h
Hs-578T = experiment: Cytotoxicity against human Hs578T cells assessed as growth inhibition at 10 uM after 48 hrs by SRB assay
[3] = Cytotoxicity against human OVCAR4 cells after 48 hrs by SRB assay; conditions: OVCAR-4, 48 h; for CC50: read-out: LC50 (the source's name)
[4] = Cytotoxicity against human OVCAR3 cells after 48 hrs by SRB assay; conditions: OVCAR-3, 48 h
SK-MEL-5 = experiment: Cytotoxicity against human SK-MEL-5 cells after 48 hrs by SRB assay; conditions: SK-MEL-5, 48 h
[5] = Cytotoxicity against human TK10 cells after 48 hrs by SRB assay; conditions: TK-10, 48 h
Malme-3M = experiment: Cytotoxicity against human MALME-3M cells after 48 hrs by SRB assay
[6] = Cytotoxicity against human Hs578T cells after 48 hrs by SRB assay; conditions: Hs-578T
MDA-MB-435 = experiment: Cytotoxicity against human MDA-MB-435 cells after 48 hrs by SRB assay; conditions: MDA-MB-435, 48 h
[7] = Cytotoxicity against human COLO205 cells after 48 hrs by SRB assay; conditions: COLO 205, 48 h
RXF 393 = experiment: Cytotoxicity against human RXF393 cells assessed as growth inhibition at 10 uM after 48 hrs by SRB assay
HCC 2998 = experiment: Cytotoxicity against human HCC2998 cells assessed as growth inhibition at 10 uM after 48 hrs by SRB assay
HOP-92 = experiment: Cytotoxicity against human HOP92 cells assessed as growth inhibition at 10 uM after 48 hrs by SRB assay
SF-295 = experiment: Cytotoxicity against human SF295 cells assessed as growth inhibition at 10 uM after 48 hrs by SRB assay
HL-60(TB) = experiment: Cytotoxicity against human HL-60(TB) cells assessed as growth inhibition at 10 uM after 48 hrs by SRB assay

C=C1CC[C@@H]2[C@](C)(COC(C)=O)[C@H](OC(C)=O)CC[C@@]2(C)[C@@H]1C/C=C1/C(=O)OC[C@H]1OC(C)=O
GI50 [1]: 1.7 µM | LC50 [1]: 6.08 µM | TGI [1]: 3.22 µM | GI50 (NCI-H522): 1.52 µM | LC50 (NCI-H522): 8.67 µM | TGI (NCI-H522): 3.63 µM | GI50 (NCI-H23): 6.22 µM | LC50 (NCI-H23): 66.9 µM | TGI (NCI-H23): 23 µM | growth inhibition (GI) (SK-OV-3): inactive | growth inhibition (GI) (IGROV-1): inactive | GI50 [2]: 10.8 µM | LC50 (concentration killing 50% of cells) [2]: 55.6 µM | TGI [2]: 24.5 µM | GI50 (MDA-MB-231): 12.5 µM | LC50 (MDA-MB-231): 58.7 µM | TGI (MDA-MB-231): 27.1 µM | GI50 (T47D): 2.86 µM | LC50 (concentration killing 50% of cells) (T47D): > 100 µM | TGI (T47D): 13.8 µM | GI50 (MDA-MB-468): 2.04 µM | LC50 (MDA-MB-468): 74.4 µM | TGI (MDA-MB-468): 5.69 µM | growth inhibition (GI) (Hs-578T): inactive | GI50 [3]: 3.57 µM | TGI [3]: 15.4 µM | CC50 [3]: 41.8 µM | GI50 [4]: 2.17 µM | LC50 (concentration killing 50% of cells) [4]: 8.15 µM | TGI [4]: 4.21 µM | GI50 (SK-MEL-5): 9.5 µM | LC50 (concentration killing 50% of cells) (SK-MEL-5): 51 µM | TGI (SK-MEL-5): 22.4 µM | GI50 [5]: 3.81 µM | LC50 [5]: 38.2 µM | TGI [5]: 13.3 µM | GI50 (Malme-3M): 2.97 µM | LC50 (Malme-3M): 29.9 µM | TGI (Malme-3M): 7.95 µM | GI50 [6]: 12.3 µM | LC50 (concentration killing 50% of cells) [6]: > 100 µM | TGI [6]: 55.4 µM | GI50 (MDA-MB-435): 2.63 µM | LC50 (50% lethal concentration) (MDA-MB-435): 32.2 µM | TGI (MDA-MB-435): 10.1 µM | GI50 [7]: 3.37 µM | LC50 [7]: > 100 µM | TGI [7]: 11.4 µM

C=C1CC[C@@H]2[C@](C)(COC(C)=O)[C@H](OC(C)=O)CC[C@@]2(C)[C@@H]1CC(NCCCC)C1=CCOC1=O (mixture of isomers)
growth inhibition (GI) (RXF 393): inactive

C=C1CC[C@@H]2[C@](C)(COC(C)=O)[C@H](OC(C)=O)CC[C@@]2(C)[C@@H]1CC(Nc1ccc(S(=O)(=O)NC(C)=O)cc1)C1=CCOC1=O (mixture of isomers)
GI50 [1]: 2.39 µM | LC50 [1]: 26.9 µM | TGI [1]: 7.77 µM | GI50 (NCI-H522): 1.44 µM | LC50 (NCI-H522): 24.1 µM | TGI (NCI-H522): 4.42 µM | GI50 (NCI-H23): 5.52 µM | LC50 (NCI-H23): 46.4 µM | TGI (NCI-H23): 17.4 µM | GI50 [2]: 8.19 µM | LC50 (concentration killing 50% of cells) [2]: 43.7 µM | TGI [2]: 18.9 µM | GI50 (MDA-MB-231): 3.32 µM | LC50 (MDA-MB-231): 35.1 µM | TGI (MDA-MB-231): 11.6 µM | GI50 (T47D): 2.46 µM | LC50 (concentration killing 50% of cells) (T47D): > 75 µM | TGI (T47D): 12 µM | GI50 (MDA-MB-468): 1.53 µM | LC50 (MDA-MB-468): 6.39 µM | TGI (MDA-MB-468): 3.13 µM | GI50 [3]: 4.14 µM | TGI [3]: 13.7 µM | CC50 [3]: 33.7 µM | GI50 [4]: 1.49 µM | LC50 (concentration killing 50% of cells) [4]: 6.13 µM | TGI [4]: 3.02 µM | GI50 (SK-MEL-5): 3.22 µM | LC50 (concentration killing 50% of cells) (SK-MEL-5): 30.7 µM | TGI (SK-MEL-5): 11.5 µM | GI50 [5]: 8.02 µM | LC50 [5]: 35.6 µM | TGI [5]: 16.9 µM | GI50 [6]: 8.45 µM | LC50 (concentration killing 50% of cells) [6]: > 75 µM | TGI [6]: 38.8 µM | GI50 (MDA-MB-435): 2.79 µM | LC50 (50% lethal concentration) (MDA-MB-435): 30.6 µM | TGI (MDA-MB-435): 10.6 µM | GI50 [7]: 1.81 µM | LC50 [7]: 20 µM | TGI [7]: 4.82 µM

C=C1CC[C@@H]2[C@](C)(COC(C)=O)[C@H](OC(C)=O)CC[C@@]2(C)[C@@H]1CC(Sc1ccccc1)C1=CCOC1=O (mixture of isomers)
GI50 (NCI-H522): 1.35 µM | LC50 (NCI-H522): 6.57 µM | TGI (NCI-H522): 2.98 µM | GI50 (NCI-H23): 1.78 µM | LC50 (NCI-H23): 7.57 µM | TGI (NCI-H23): 3.67 µM | GI50 [2]: 1.78 µM | LC50 (concentration killing 50% of cells) [2]: 7.97 µM | TGI [2]: 3.77 µM | GI50 (MDA-MB-231): 2.47 µM | LC50 (MDA-MB-231): > 100 µM | TGI (MDA-MB-231): 6.29 µM | GI50 (T47D): 2.01 µM | LC50 (concentration killing 50% of cells) (T47D): > 100 µM | TGI (T47D): 8.32 µM | GI50 (MDA-MB-468): 1.41 µM | LC50 (MDA-MB-468): 7.53 µM | TGI (MDA-MB-468): 3.26 µM | GI50 [3]: 1.36 µM | TGI [3]: 3.11 µM | CC50 [3]: 7.12 µM | GI50 [4]: 1.14 µM | LC50 (concentration killing 50% of cells) [4]: 4.92 µM | TGI [4]: 2.37 µM | GI50 (SK-MEL-5): 1.42 µM | LC50 (concentration killing 50% of cells) (SK-MEL-5): 5.6 µM | TGI (SK-MEL-5): 2.82 µM | GI50 [5]: 2.83 µM | LC50 [5]: 13.4 µM | TGI [5]: 5.54 µM | GI50 (Malme-3M): 1.74 µM | LC50 (Malme-3M): 7.59 µM | TGI (Malme-3M): 3.63 µM | GI50 [6]: 4.89 µM | LC50 (concentration killing 50% of cells) [6]: > 100 µM | TGI [6]: 63.3 µM | GI50 (MDA-MB-435): 1.41 µM | LC50 (50% lethal concentration) (MDA-MB-435): 9.09 µM | TGI (MDA-MB-435): 3.58 µM | GI50 [7]: 1.49 µM | LC50 [7]: > 100 µM | TGI [7]: 3.98 µM

C=C1CC[C@@H]2[C@](C)(CO)[C@H](O)CC[C@@]2(C)[C@@H]1C/C=C1/C(=O)OC[C@H]1O [ANDROGRAPHOLIDE]
growth inhibition (GI) (HCC 2998): inactive | growth inhibition (GI) (SK-OV-3): inactive | growth inhibition (GI) (IGROV-1): inactive | growth inhibition (GI) (HOP-92): inactive | growth inhibition (GI) (SF-295): inactive | growth inhibition (GI) (Hs-578T): inactive | growth inhibition (GI) (HL-60(TB)): inactive | growth inhibition (GI) (RXF 393): inactive
